Measured values taken from patent publication US11491155B2, “Salt of a pyrimido[6,1-A]isoquinolin-4-one compound” (VERONA PHARMA PLC, priority 2015, dated 2022).

Legend:
[1] = Intrinsic dissolution of compressed tablet, pH 7.0, 37° C. (Sirius inForm); assay type: physicochemical; settings: pH 7.0, 0.15 M NaCl, 37° C.; listed as p-toluenesulfonate salt
Method: The dissolution assay (pH-dependent sample dissolution) was investigated using the Sirius inForm.
Dissolution of a compressed tablet of the compound was monitored in a pH 7.0 aqueous dissolution experiment (0.15 M NaCl) at 37° C. using UV-absorption spectroscopy in 2 hour experiments. A tablet with a diameter of 3 mm, requiring approximate weights of 10 mg was compressed under a weight of 100 kg load force. Only one face of the tablet was exposed to the dissolution medium, which contained a 0.01 M acetate/phosphate buffer system to minimise perturbation of the experimental pH from dissolution of the drug.
Stirring of the solution was continuous and at a constant rate of 100 rpm. The absorption data was converted to absolute sample weights using previously determined, pH-dependent, molar extinction coefficients. An appropriate wavelength range was chosen to ensure that spectroscopic data with an absorption value of <1.3 was analysed, avoiding erroneous dissolution results due to saturation of the UV light source.

[2] = Solubility of RPL554 salts in saline solutions, water and aqueous buffer solutions at 25° C. (HPLC); assay type: physicochemical; settings: 24 hours
Method: The behaviour of salts of RPL554 were examined under the following conditions: • Phosphate buffered to pH 3.5 in saline, 0.9% w/w at 25° C. • Acetate buffered to pH 4.5 in saline, 0.9% w/w at 25° C. • Citro-Phosphate buffered to pH 4.5 in saline, 0.9% w/w at 25° C. • Phosphate buffered to pH 6.5 in saline, 0.9% w/w at 25° C. • Saline, 0.7, 0.9 and 1.1% w/w at 25° C. • Deionised water at 25° C.
RPL554 salts and RPL554, ca 50 mg, were suspended in the various aqueous media, 1 ml, with agitation at the specified temperatures for 24 hours. The solids were isolated and dried in vacuo at 45° C. The retained filtrates were examined by HPLC.
Additional RPL554 methane sulfonate salt, ca 50 mg, was charged to the water mixtures at 25° C. and 37.5° C. in order to afford a suspension. In all other cases, suspensions were obtained.
The solubility of the RPL554 was determined by HPLC using a single point calibration and is expressed as RPL554 and not as the salt and are detailed in Table 6 and Table 7 for the various conditions utilised.

[3] = Physico-chemical characteristics of salt candidates: solubility in water, pH of aqueous suspension/solution, form post water maturation; settings: listed as p-Toluene sulfonic
Method: The physico-chemical characteristics of the salt candidates were determined.

[4] = Primary particle size analysis by laser light diffraction (Mastersizer 2000); assay type: physicochemical; settings: micronised, mean n=3
Method: A Mastersizer 2000 fitted with a Scirocco 2000 dry powder dispersion unit (Malvern Instruments Ltd, UK) was used to analyse the primary particle size of the micronised RPL554 and salt variants. The salts (50 mg) were automatically sampled via a vibrating feed control at a feeder rate of 60% and dispersed in compressed air at a pressure of 3 bar.

[5] = Solubility of RPL554 and salts in pMDI propellant systems; assay type: physicochemical
Method: Quantitative assessment of the solubility of RPL554 and salt variants in the propellant systems of selected pMDI formulations (three replicates of each formulation) was performed. pMDIs were directly coupled to an adaptor fitted with a 0.20 μm filter unit connected, in series to a 21 G needle, which was inserted via a rubber septum, into a cooled multi-dose glass vial. A 19 G filter needle was inserted through the septum to aid evaporation of propellant from the vial. Prior to the filtration process the vial was cooled in a mixture of dry ice and acetone to ensure that the pressure within the vial was reduced in order to facilitate collection of the output from the pMDI. Ten consecutive actuations of the pMDI were fired through the filter and collected in the vial. Between actuations the canister was shaken for approximately 10 seconds. The pMDI unit was weighed before and after the filtering procedure. The filtrate was stored at room temperature and allowed to evaporate to dryness.
Samples were recovered by carefully rinsing the inside of the vials with 1 mL of recovery solution before transfer to HPLC vials for analysis. The estimated % of RPL554 solubilised within the canister was calculated from the starting mass of RPL554 within the canisters, which in turn was calculated using the theoretical molecular weight values of the RPL554 free base and salt variants shown in Table 13. The theoretical molecular weight estimates of the salts were provided by Verona.

[6] = RPL554 content and content uniformity of 1% w/w lactose powder blends; assay type: physicochemical
Method: Batches (approximately 5 g) of 1% w/w RPL554 free base or salt variants: lactose blends were prepared. In brief, the RPL554 free base or salt plus a small quantity of lactose was passed through a 38 μm sieve. The sieved material plus the remaining lactose was mixed in a glass mortar prior to transfer to a stainless steel screw cap jar and further mixing (10 minutes at 46 rpm) conducted using a Turbula blender. The composition of the dry powder blend was 0.05 g API and 4.95 g lactose.
In order to determine the content uniformity of the blends, aliquots (approx. 20 mg) of powder were sampled from each blend, accurately weighed, and diluted to volume in 10 mL volumetric flasks with diluent. The flasks were sonicated for 3 minutes before samples were transferred to HPLC vials for analysis.

[7] = Aerosol performance of DPI formulations (Cyclohaler, NGI); assay type: physicochemical
Method: Capsules were hand filled with 20 mg of the 1% w/w RPL554 free base or salt variants: lactose blends, i.e. 200 μg salt per capsule, the fill weight of each capsule was recorded. Due to differences in the molecular weights of the RPL554 salt forms, the amount of RPL554 emitted per actuation varied as a function of molecular weight. The formulations were prepared with no adjustment for differences in molecular weight of the salts.
The powders were delivered via the Cyclohaler® DPI (PCH Pharmachemie, BV, The Netherlands). The Cyclohaler® DPI is a low resistance device and was operated at a flow rate of 90 L/min for 2.7 seconds. The cut off diameters for the NGI collection stages were calculated for the 90 L/min flow rate using the NGI User Guide (MSP Corporation, 2008).
The ED, FPD and FPF were determined from inertial impaction tests performed following the deposition of 5 capsules of each formulation into the NGI. For each capsule tested the combined weight of the Cyclohaler® and capsule was determined before and after operation to check that the dose had been delivered. The NGI was fitted with a pre-separator for these determinations. The central cup of the pre-separator was filled with 15 mL of diluent. Following deposition, the solution was recovered in a 20 mL volumetric flask and made up to volume with diluent. RPL554 was quantitatively recovered from the device, induction port and each of the NGI collection stages with 10 mL of diluent.
The volume of diluent used for each sample was selected to ensure RPL554 concentrations were above the limit of quantitation.

**Q.** With `COc1cc2c(cc1OC)-c1c/c(=N\c3c(C)cc(C)cc3C)n(CCNC(N)=O)c(=O)n1CC2` [p-Toluenesulfonate, RPL554 p-toluenesulfonate] as the compound, how does the “Mass of salt (μg) dissolved after 2 hours, Average” value [1] read?
**A.** 61.6 µg

**Q.** What about the “Mass of salt (μg) dissolved after 2 hours, Test 1” value [1] of the same compound?
**A.** 51.2 µg

**Q.** What about the “Mass of salt (μg) dissolved after 2 hours, Test 2” value [1] of the same compound?
**A.** 71.9 µg

**Q.** And the “Solubility as RPL554 (mg/ml) in 0.7 w/w % Saline” value [2]?
**A.** 0.83 mg/mL

**Q.** And the “Solubility as RPL554 (mg/ml) in 0.9 w/w % Saline” value [2]?
**A.** 0.62 mg/mL

**Q.** What about the “Solubility as RPL554 (mg/ml) in 1.1 w/w % Saline” value [2] of the same compound?
**A.** 0.8 mg/mL

**Q.** What about the “Solubility as RPL554 (mg/ml) in Water” value ([2]; deionised water) of the same compound?
**A.** 1.01 mg/mL

**Q.** What about the “pH of aqueous suspension/solution” value [3] of the same compound?
**A.** 3.40

**Q.** What about the “D (0.1) (μm)” value [4] of the same compound?
**A.** 0.47 μm

**Q.** And the “D (0.5) (μm)” value [4]?
**A.** 1.34 μm

**Q.** And the “D (0.9) (μm)” value [4]?
**A.** 4.53 μm

**Q.** And the “Calculated RPL554 solubilised (%)” value ([5]; in HFA 134)?
**A.** 0.08%

**Q.** What about the “Calculated Solubilised RPL554 μg per 50 μL actuation” value ([5]; in HFA 134) of the same compound?
**A.** 0.11 µg

**Q.** What about the “Solubility RPL554” value ([5]; in HFA 134, BLQ = below limit of quantitation (0.06 μg/mL)) of the same compound?
**A.** 1.56 µg/g

**Q.** And the “Solubility RPL554 (μg/g)” value ([5]; in HFA 134, BLQ = below limit of quantitation (0.06 μg/mL), listed as p-toluensulfonate)?
**A.** quantifiable levels of solubility

**Q.** And the “Estimated RPL554 solubilised (%)” value ([5]; in HFA 134 with Ethanol/Tween)?
**A.** 7.20%

**Q.** What about the “Estimated Solubilised RPL554 μg per 50 μL actuation” value ([5]; in HFA 134 with Ethanol/Tween) of the same compound?
**A.** 10.58 µg

**Q.** What about the “Solubility RPL554” value ([5]; in HFA 134 with Ethanol/Tween) of the same compound?
**A.** 152.85 µg/g

**Q.** What about the “Calculated RPL554 solubilised (%)” value ([5]; in HFA 227) of the same compound?
**A.** BLQ

**Q.** What about the “Calculated Solubilised RPL554 μg per 50 μL actuation” value ([5]; in HFA 227) of the same compound?
**A.** BLQ

**Q.** And the “Solubility RPL554 (μg/g)” value ([5]; in HFA 227)?
**A.** BLQ

**Q.** And the “Measured Blend Content (% Theoretical)” value ([6]; 1% w/w RPL554 variant: lactose powder blend, expressed as RPL554 base)?
**A.** 88.66 % Theoretical

**Q.** And the “**Adjusted RPL554 Content per capsule” value ([6]; per 20 mg capsule of 1% w/w lactose blend, adjusted for measured blend content (% theoretical), as RPL554 base)?
**A.** 130.33 µg

**Q.** And the “†Measured Mass of 1% w/w Blend Delivered per capsule” value ([7]; Cyclohaler, 5 capsules containing 20 mg powder blend, mass from weight change of capsule-loaded device)?
**A.** 20.02 mg

**Q.** What about the “††RPL554 Emitted (μg) per capsule (B)” value ([7]; Cyclohaler, NGI, mass determined from HPLC analysis of recovered samples, as RPL554 base) of the same compound?
**A.** 86.84 µg

**Q.** And the “Calculated RPL554 Content (μg) per capsule (A)” value ([7]; calculated from delivered blend mass and measured blend content, as RPL554 base)?
**A.** 130.46 µg
